Assay results taken from patent publication US9439910B2, “Fe(III)-pyrazine complex compounds for treatment and prophylaxis of iron-deficiency phenomena and iron-deficiency anaemia” (VIFOR (INTERNATIONAL) AG, priority 2012, dated 2016).

System: Male NMRI (SPF) mice
Experiment: Fe utilization in mouse model (low-iron diet, oral administration by stomach tube)
Format: in vivo
Details: for Utilization n 15 d: mice fed low-iron diet (approx. 5 ppm iron) approx. 3 weeks, 2 mg iron/kg body weight/day by stomach tube, days 1-5 and 8-12, utilization on day 15 calculated from hemoglobin increase and body weight increase; for iron utilization compared to the pyridine comparative compound: same mouse model, comparison in words with the comparative example
Experimental: The excellent Fe utilizations that can be accomplished through the Fe complexes according to the invention were measured by means of the following mouse model. Male NMRI (SPF) mice (approximately 3 weeks old) were fed a low-iron diet (approx. 5 ppm iron) for approximately 3 weeks. The iron complexes were then administered to them by means of a stomach tube (2 mg iron/kg body weight/day) for 2 times 5 days, with an interruption of 2 days (days 1-5 and 8-12). 6 mice were the control group (negative control) and were administered with water instead. Utilization on day 15 was calculated from the hemoglobin increase and the body weight increase in accordance with the formula [formula]

Substance | Utilization n 15 d [abs. %] | iron utilization compared to the pyridine comparative compound
Tris-(3,5,6-trimethylpyrazine-2-ol-1-oxide)iron(III)-complex [Example 4] | 32 | improved iron utilization
Tris-(3,6-dimethylpyrazine-2-ol-1-oxide)-iron(III)-complex [Example 10] | 58 | improved iron utilization
Tris-(3-methylpyrazine-2-ol-1-oxide)iron(III)-complex [Example 3] | 77 | improved iron utilization
Tris-(5,6-dimethyl pyrazine-2-ol 1-oxide)iron(III)-complex [Example 2] | 61 | improved iron utilization
Tris-(5-methylpyrazine-2-ol-1-oxide)iron(III)-complex [Example 5] | 37 | improved iron utilization
Tris-(pyrazine-2-ol 1-oxide)iron(III)-complex [Example 1] | 56 | significantly improved iron utilization
